Assay results as given in article PMC3196665 (Chemical biology & drug design, 2011).
Like-named read-outs stand apart in the source and are kept apart here.

Key:
EphA2 [1] = target: T1, EphA2 (Homo sapiens, UniProt P29317); format: cell-based
EphA4 Fc = EphA4 Fc (Mus musculus, UniProt Q03137); assay: ELISA: inhibition of ephrin-A5 AP binding to immobilized EphA4 Fc
[2] = target: EphA4 AP binding to ephrin-A and ephrin-B ligands (Homo sapiens, UniProt P54764); conditions: ref [37]; cited from earlier work
EphA4 AP binding to ephrin-A and ephrin-B ligands, sequence (P54764 30-209 limits assumed): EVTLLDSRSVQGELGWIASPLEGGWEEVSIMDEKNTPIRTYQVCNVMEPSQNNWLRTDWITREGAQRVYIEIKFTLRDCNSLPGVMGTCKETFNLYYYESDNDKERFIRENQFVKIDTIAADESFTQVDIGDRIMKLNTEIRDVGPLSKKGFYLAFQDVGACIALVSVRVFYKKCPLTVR

[3] = target: EphA4 ligand-binding domain (Homo sapiens, UniProt P54764); assay: 1H NMR of compound with increasing EphA4 ligand-binding domain; conditions: 10 mM phosphate buffer, pH 6.5; unmodified compound
EphA4 ligand-binding domain, sequence (P54764 28-208): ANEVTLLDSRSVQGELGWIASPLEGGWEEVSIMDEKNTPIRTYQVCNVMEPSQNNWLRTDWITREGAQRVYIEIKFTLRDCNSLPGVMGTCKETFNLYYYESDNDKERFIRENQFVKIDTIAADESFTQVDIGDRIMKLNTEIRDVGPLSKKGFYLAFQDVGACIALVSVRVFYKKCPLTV

HUVE cells [4] = assay: MTT assay, HUVE cell viability; format: cell-based; conditions: 200 μM
HUVE cells [5] = assay: Capillary-like tube formation of HUVECs on Matrigel; format: cell-based; conditions: 18 hours
PC3 cells = assay: PC3 cell retraction assay; format: cell-based
EphA4 = EphA4 (Mus musculus, UniProt Q03137); assay: Ephrin-induced EphA4 tyrosine phosphorylation in HT22 neuronal cells; format: cell-based; conditions: ephrin-A5 Fc
EphA4, sequence (Q03137 20-986): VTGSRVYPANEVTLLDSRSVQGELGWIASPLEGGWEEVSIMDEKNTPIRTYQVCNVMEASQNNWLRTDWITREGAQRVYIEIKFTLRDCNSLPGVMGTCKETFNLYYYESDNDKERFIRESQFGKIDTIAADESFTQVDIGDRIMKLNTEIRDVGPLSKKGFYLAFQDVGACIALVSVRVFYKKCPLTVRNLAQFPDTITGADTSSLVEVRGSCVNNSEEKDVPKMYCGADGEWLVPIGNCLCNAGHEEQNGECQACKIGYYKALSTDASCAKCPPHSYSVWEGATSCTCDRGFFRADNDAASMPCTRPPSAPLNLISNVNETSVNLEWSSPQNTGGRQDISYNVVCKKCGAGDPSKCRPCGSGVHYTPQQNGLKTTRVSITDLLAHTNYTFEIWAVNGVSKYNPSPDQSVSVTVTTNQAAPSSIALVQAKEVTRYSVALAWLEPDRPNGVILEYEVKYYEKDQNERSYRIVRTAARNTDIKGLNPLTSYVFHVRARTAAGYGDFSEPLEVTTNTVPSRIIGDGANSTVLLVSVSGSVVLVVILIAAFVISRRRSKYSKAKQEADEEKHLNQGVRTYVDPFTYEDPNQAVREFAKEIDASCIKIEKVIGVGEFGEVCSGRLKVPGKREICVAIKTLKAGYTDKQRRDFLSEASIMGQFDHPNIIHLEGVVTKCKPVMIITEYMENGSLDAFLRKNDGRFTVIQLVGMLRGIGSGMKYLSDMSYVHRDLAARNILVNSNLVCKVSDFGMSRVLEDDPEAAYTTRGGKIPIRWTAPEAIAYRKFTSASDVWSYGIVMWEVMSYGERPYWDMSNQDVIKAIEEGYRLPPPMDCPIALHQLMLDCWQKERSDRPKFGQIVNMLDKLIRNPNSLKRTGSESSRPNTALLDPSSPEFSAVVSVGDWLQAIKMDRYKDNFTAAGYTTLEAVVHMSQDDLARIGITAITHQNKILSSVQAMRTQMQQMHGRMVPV

EphB4 = assay: ELISA: ephrin-B2 AP binding to immobilized EphB4 Fc
EphA7 = assay: ELISA: ephrin-A5 AP binding to immobilized EphA7 Fc
EphA6 = assay: ELISA: ephrin-A5 AP binding to immobilized EphA6 Fc
EphB2 [6] = assay: ELISA: ephrin-B2 AP binding to immobilized EphB2 Fc
[7] = Stability of compound in DMSO, followed by ELISA IC50; format: physicochemical; conditions: DMSO at ≤ 10 mM, room temperature, after 4 days
EphA3 = assay: ELISA: ephrin-A5 AP binding to immobilized EphA3 Fc
EphB6 = assay: ELISA: ephrin-B2 AP binding to immobilized EphB6 Fc
EphB1 = assay: ELISA: ephrin-B2 AP binding to immobilized EphB1 Fc
EphA2 [8] = tested on: EphA2
EphA5 = assay: ELISA: ephrin-A5 AP binding to immobilized EphA5 Fc
EphB3 = assay: ELISA: ephrin-B2 AP binding to immobilized EphB3 Fc
EphB2 [9] = assay: Ephrin-B2 Fc-induced EphB2 tyrosine phosphorylation in COS cells; format: cell-based
EphA2 [10] = assay: Ephrin-A1 Fc-induced EphA2 tyrosine phosphorylation in COS cells; format: cell-based
EphA2 [11] = target: T1, EphA2; assay: TNFα-induced EphA2 tyrosine phosphorylation in HUVE cells; format: cell-based; conditions: 20 nM TNFα, 2 hours
Eph receptors = conditions: ref [36]; cited from earlier work

T1 sequence (P29317 24-976): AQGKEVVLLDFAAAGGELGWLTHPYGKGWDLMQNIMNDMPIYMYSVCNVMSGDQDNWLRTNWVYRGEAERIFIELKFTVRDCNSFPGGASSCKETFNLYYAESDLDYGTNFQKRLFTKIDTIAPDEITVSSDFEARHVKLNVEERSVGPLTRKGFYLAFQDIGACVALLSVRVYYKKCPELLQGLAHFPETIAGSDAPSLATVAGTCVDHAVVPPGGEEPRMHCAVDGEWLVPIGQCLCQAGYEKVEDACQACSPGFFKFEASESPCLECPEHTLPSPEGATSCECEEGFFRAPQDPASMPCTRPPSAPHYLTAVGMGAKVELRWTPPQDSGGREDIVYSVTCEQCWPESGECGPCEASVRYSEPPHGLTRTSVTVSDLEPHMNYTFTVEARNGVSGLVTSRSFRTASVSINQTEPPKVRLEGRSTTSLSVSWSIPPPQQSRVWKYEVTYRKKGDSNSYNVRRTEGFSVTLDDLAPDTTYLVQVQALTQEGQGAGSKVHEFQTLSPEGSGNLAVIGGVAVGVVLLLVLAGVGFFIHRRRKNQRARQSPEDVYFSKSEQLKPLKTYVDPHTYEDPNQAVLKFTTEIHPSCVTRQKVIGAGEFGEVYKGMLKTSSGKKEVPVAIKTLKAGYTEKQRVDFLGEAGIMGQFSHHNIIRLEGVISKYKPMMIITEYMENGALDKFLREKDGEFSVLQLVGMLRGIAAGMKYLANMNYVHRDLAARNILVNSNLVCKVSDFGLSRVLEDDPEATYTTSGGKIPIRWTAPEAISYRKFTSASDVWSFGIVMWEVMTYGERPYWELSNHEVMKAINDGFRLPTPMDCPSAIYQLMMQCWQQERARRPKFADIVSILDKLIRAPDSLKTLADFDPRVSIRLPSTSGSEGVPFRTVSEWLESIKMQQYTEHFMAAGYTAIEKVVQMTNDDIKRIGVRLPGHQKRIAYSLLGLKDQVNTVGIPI
EphA4 Fc, sequence (Q03137 20-547): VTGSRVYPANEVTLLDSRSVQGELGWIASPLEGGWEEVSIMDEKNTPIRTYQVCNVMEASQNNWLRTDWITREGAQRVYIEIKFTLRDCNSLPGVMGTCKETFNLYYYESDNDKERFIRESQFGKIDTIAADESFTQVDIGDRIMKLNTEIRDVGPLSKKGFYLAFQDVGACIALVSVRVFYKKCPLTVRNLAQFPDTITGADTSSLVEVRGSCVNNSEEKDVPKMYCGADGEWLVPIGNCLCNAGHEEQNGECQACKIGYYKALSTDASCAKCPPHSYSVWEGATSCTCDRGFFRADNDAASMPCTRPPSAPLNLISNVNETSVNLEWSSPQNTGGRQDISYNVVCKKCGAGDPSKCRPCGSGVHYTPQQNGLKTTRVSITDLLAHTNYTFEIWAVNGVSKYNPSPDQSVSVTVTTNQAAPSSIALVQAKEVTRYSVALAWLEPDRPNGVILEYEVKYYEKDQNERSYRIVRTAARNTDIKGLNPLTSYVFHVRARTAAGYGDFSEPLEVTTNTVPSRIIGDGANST

## Cc1ccc(C)n1-c1ccc(C(=O)O)c(O)c1 [Compound 1, reference compound]
EphA2 [1]; newly synthesized preparation, PC3 cells
  Inhibition of EphA2 phosphorylation in cells stimulated with ephrin-A1 Fc: did not show detectable inhibition
EphA2 [1]; purchased preparation, PC3 cells
  Inhibition of EphA2 phosphorylation in cells stimulated with ephrin-A1 Fc: activity comparable to that previously reported
EphA4 Fc; dry form exposed to air at room temperature
  Change of activity in ephrin-A5-EphA4 ELISA on storage: becomes progressively more active
EphA4 Fc; newly synthesized preparation
  Inhibition of ephrin-A5 AP binding to EphA4 Fc: did not show detectable inhibition
EphA4 Fc; purchased preparation
  Inhibition of ephrin-A5 AP binding to EphA4 Fc: activity comparable to that previously reported
[2]
  Inhibition of EphA4 AP binding to ephrin-A4 and ephrin-B2: do not efficiently inhibit
[3]
  Binding to EphA4 (resonance peak shifts of compound protons): some, albeit weak, ability to bind to EphA4

## COC(=O)/C=C/c1ccc(-c2ccc(O)c(C(=O)OC)c2)o1 [Compound 76A5, (E)-methyl 2-hydroxy-5-(5-(3-methoxy-3-oxoprop-1-en-1-yl)furan-2-yl)benzoate]
EphA4 Fc
  Inhibitory activity on ephrin-A5 AP binding to EphA4 Fc: did not show detectable inhibitory activity

## Cc1ccc(C)n1-c1ccc(O)c(C(=O)O)c1 [Compound 2]
[2]
  Inhibition of EphA4 AP binding to ephrin-A4 and ephrin-B2: do not efficiently inhibit

## O=C(/C=C/c1ccc(-c2ccc(O)c(C(=O)O)c2)o1)/C=C/c1ccc(-c2ccc(O)c(C(=O)O)c2)o1 [Compound 76D10]
EphA2 [1]; 0.1 mg/mL BSA, COS and PC3 cells
  Effect of BSA in culture medium on compound activity: inhibited the activity
EphA2 [1]; PC3 cells, ephrin-A1 Fc
  Inhibition of EphA2 tyrosine phosphorylation: inhibits tyrosine phosphorylation
HUVE cells [4]; three days
  HUVE cell viability (MTT): minimally affected
HUVE cells [4]; up to one day
  HUVE cell viability (MTT): not affected
HUVE cells [5]
  Inhibition of capillary-like tube formation: inhibits capillary-like tube formation
EphA4 Fc
  Selectivity among EphA and EphB receptors examined: preferentially inhibits
  Time to binding equilibrium after addition of ephrin-A5 AP with compound: ≤ 3 h
EphA4 Fc; 0.1 mg/ml BSA
  Inhibitory activity in the presence of BSA: lost
EphA4 Fc; 0.1 mg/ml collagen
  Inhibitory activity in the presence of collagen: not affected
EphA4 Fc; 3 hour incubation, wash, 24 hours in binding buffer
  Reversibility of binding to EphA4 in ELISA: does not appear to be reversible
EphA4 Fc; increasing 76D10 concentrations
  Mode of inhibition (Bmax and KD of ephrin-A5 AP binding curves): consistent with competitive inhibition
PC3 cells
  Effect on cell morphology in the absence of ephrin: does not affect cell morphology
PC3 cells; 25 μM
  Reversal of the effect of ephrin-A1 on cell area: partially
PC3 cells; 50 μM
  Reversal of the effect of ephrin-A1 on cell area: partially
PC3 cells; 100 μM
  Reversal of the effect of ephrin-A1 on cell area: reverted completely
PC3 cells; concentrations between 25 and 100 μM
  Inhibition of ephrin-A1 Fc-induced cell retraction: significantly counteracts these effects
EphA4
  Inhibition of EphA4 tyrosine phosphorylation: inhibits EphA4 tyrosine phosphorylation
EphB4
  Inhibition of ephrin-B2 binding to EphB4: inhibits with substantial potency
EphA7
  Inhibition of ephrin-A5 binding to EphA7: inhibits with substantial potency
EphA6
  Inhibition of ephrin-A5 binding to EphA6: inhibits with substantial potency
EphB2 [6]
  Inhibition of ephrin binding to EphB2: much lower to undetectable inhibitory activity
[7]
  Increase in IC50 values on storage in DMSO: 10 fold
EphA3
  Inhibition of ephrin binding to EphA3: much lower to undetectable inhibitory activity
EphB6
  Inhibition of ephrin-B2 binding to EphB6: inhibits with substantial potency
EphB1
  Inhibition of ephrin binding to EphB1: much lower to undetectable inhibitory activity
EphA2 [8]
  Selectivity among EphA and EphB receptors examined: preferentially inhibits
EphA5
  Inhibition of ephrin-A5 binding to EphA5: inhibits with substantial potency
EphB3
  Inhibition of ephrin binding to EphB3: much lower to undetectable inhibitory activity
EphB2 [9]
  Inhibition of EphB2 tyrosine phosphorylation: not EphB2 tyrosine phosphorylation
EphA2 [10]
  Inhibition of EphA2 tyrosine phosphorylation: inhibits tyrosine phosphorylation
EphA2 [11]
  Inhibition of EphA2 tyrosine phosphorylation in response to TNFα: inhibits EphA2 tyrosine phosphorylation

## O=Cc1ccc(-c2ccc(O)c(C(=O)O)c2)o1 [Compound 76B8, 5-(5-formylfuran-2-yl)-2-hydroxybenzoic acid]
EphA4 Fc
  Inhibitory activity on ephrin-A5 AP binding to EphA4 Fc: did not show detectable inhibitory activity

## C[C@H](CCC(=O)O)[C@H]1CC[C@H]2[C@@H]3CC[C@@H]4C[C@H](O)CC[C@]4(C)[C@H]3CC[C@]12C [lithocholic acid]
Eph receptors
  Inhibition of Eph receptors: inhibit with similar low potency all Eph receptors examined
